Data set [1] deals with rodent GSK3β homologs. The following applies: cited from earlier work.
The subject of data set [2] is hPSCs. The data set can be described thus: hPSC differentiation to mesoderm and KDR+CD235a+ primitive hematopoietic precursors. In kind it is cell-based, human. An excerpt:
Inhibition of Wnt signaling biases early mesoderm cells from the posterior primitive streak to generate KDR+CD235a+ primitive hematopoietic precursors (Sturgeon et al., Nat. Biotechnol. (2014); 32, 554-561). These precursors will go on to initiate primitive hematopoiesis in the yolk sac, giving rise to early EMPs. In this microglial differentiation scheme, the present example adapted Wnt inhibition to induce primitive hematopoiesis from hPSCs in a monolayer strategy. […] These cells were also KDR+ and CD235a+ (primitive hematopoietic precursors) by day 4 of differentiation by flow cytometry. […] Next, the present example developed the timeline of hemogenic endothelium and hematopoietic cell. Hemogenic endothelium developed after 1 day of replating the sorted KDR^+CD235A^+ primitive hematopoietic precursors. These cells gave rise to hematopoietic cells in suspension over 7 days in culture, gradually becoming more numerous in culture (FIG. 2). In order to validate hemogenic endothelium by VE-cadherin+staining, at 1 day post-sort, the cells were positive for VE-cadherin by immunofluorescence confirming that they were hemogenic endothelium, and the cells in suspension had characteristic small nuclei of hematopoietic cells (FIG. 3). […]

Data set [3] relates to WNT pathway. Conditions: at the level of the pathway activator Porcupine; read-out: IC50 WNT pathway inhibition; cited from earlier work.
Data set [4] deals with SW480 cells. The following applies: cited from earlier work.
Data set [5] concerns hPSC-derived microglial cells. Description: Amyloid-beta phagocytosis by hPSC-derived microglial cells (FACS). Type of data set: cell-based, human. Conditions: flow cytometry. On the procedure: (§1) hPSC-derived microglia were used to model two neurodegenerative diseases, Alzheimer's and Amyotrophic Lateral Sclerosis (ALS). Mixed cultures of hPSC-derived microglia and Alzheimer's iPSC-derived neurons allowed to observe microglial activation in the disease culture, particularly with respect to increased complement C3 release. […] C3 was measured via ELISA. Additionally, GM-C SF diminished the C3 release in all cultures, both Alzheimer's and control (FIG. 20). […] Amyloid-β burden was decreased in microglial co-cultures with selectivity for amyloid-42 peptide (FIG. 21). […] Increased fluorescence of 42-488 inside microglial cells indicated increased uptake (FIG. 22). […] Switching fluorophores yielded similar result: amyloid-beta 42 was taken up more by microglial cells (FIG. 23). The fluorophores representing amyloid 42 and 40 were switched to make sure the effect of increased 42 brightness within cells was not due to a technical fluorophore brightness effect. Even with the switched fluorophores, in this experiment 42 was tagged to 555 and 40 to 488, there was more 42 brightness within microglial cells via immunofluorescence, corroborating the previous results that microglial cells phagocytosed amyloid-beta 42 selectively.

Data set [6] concerns pMacs. Description: Serum-free maturation of pMacs into macrophages. In kind it is cell-based, human. The following applies: pMacs in IMDM/F12/N2/B27 without serum. An excerpt: In the second strategy to generate microglia, the EMPs were matured into macrophages with 10% serum and M-CSF and IL-34. They developed the mature macrophage marker Cd11b by day 4 in culture, and the mature spindle morphology by day 11 (FIG. 10). All the cells that persisted in culture in serum and M-CSF and IL-34 after 11 days were CD45^+, indicating they were all hematopoietic. The majority also were positive for mature macrophage markers such as CX3CR1, CD14, Cd11b, and dectin by flow cytometry analysis (FIG. 11). The pMacs can also be matured into macrophages without serum, using IMDM/F12/N2/B27 in place of serum along with M-CSF and IL-34 (FIG. 12). […] Macrophage cells co-cultured with neurons yielded microglial cells with branching morphology and increased Iba1 immunofluorescence staining (FIG. 13). Iba1 was increased in microglial cells from macrophages, so the cells had transitioned into microglial identity through co-culture with neurons. Co-cultured pMac-derived microglia (EMP co-culture) and pMac-macrophage derived microglia (EMP-macrophage co-culture) share expression of key microglial genes with human fetal microglia (FIG. 14). Quantitative PCR of RNA from the two different strategies to derive microglia shared gene expression of a panel of key microglial genes with RNA from human fetal microglia (commercial source).

In data set [7] the test system is complement C3 release from hPSC-derived microglia cultures. Description: C3 release in Alzheimer's and H9 control co-cultures (ELISA). In kind it is cell-based, human. Conditions: all cultures, both Alzheimer's and control. As for the experimental part: as §1
Culture supernatants were analyzed for C3 using the Millipore Luminex Multiplex Kit on the FlexMap 3D system. […]

On to `Cc1c[nH]c(-c2cnc(NCCNc3ccc(C#N)cn3)nc2-c2ccc(Cl)cc2Cl)n1` [CHIR99021, 6-(2-(4-(2,4-dichlorophenyl)-5-(4-methyl-1H-imidazol-2-yl)pyrimidin-2-ylamino)ethylamino)nicotinonitrile], for which, in data set [1], the “IC50 values against rodent GSK3β homologs” value is “nanomolar”. Further, the “percentage of primitive hematopoietic precursors (KDR+CD235a+)” value in data set [2] (18 hr at 3 uM followed by Wnt inhibition via IWP2 at 3 uM, flow cytometry) was “highest percentage”. Besides, the “early mesoderm marked by Brachyury (T)” value in data set [2] (eighteen hours of Wnt activation, immunofluorescence) is “gave rise to early mesoderm”.
For the compound `Cc1ccc2nc(NC(=O)CSc3nc4c(c(=O)n3-c3ccccc3)SCC4)sc2c1` [IWP-2, N-(6-methyl-1,3-benzothiazol-2-yl)-2-[(4-oxo-3-phenyl-6,7-dihydrothieno[3,2-d]pyrimidin-2-yl)thio]acetamide], the IC50 in data set [3] is 27 nM.
Regarding `Oc1nc(-c2ccc(C(F)(F)F)cc2)nc2c1CSCC2` [XAV939], in data set [4], the “degradation of β-catenin” value was “promotes the degradation of β-catenin” and the “protein levels of the axin-GSK3β complex” value was “increases”.
On to “GM-CSF: granulocyte-macrophage colony-stimulating factor”, for which, in data set [5], the “phagocytosis of amyloid-beta 40” value is on record as “increased” and the “phagocytosis of amyloid-beta 42” value was “increased”. Besides, the “cell yield / cell division and appearance” value in data set [6] was “allowed division of the cells as well but the resulting cells appeared more granular and activated”. Moreover, the C3 release result in data set [7] is “diminished”.

The record behind these values is patent publication US20210214681A1, “STEM CELL-DERIVED HUMAN MICROGLIAL CELLS, METHODS OF MAKING AND METHODS OF USE” (MEMORIAL SLOAN-KETTERING CANCER CENTER, priority 2018, published 2021).
